Laboratory results from article PMC7395068, “The evolution of strategies to minimise the risk of human drug-induced liver injury (DILI) in drug discovery and development” (Archives of Toxicology, 2020).
Where two headings read alike, the source gives them in different places.

Tests used:
[1] = tested on: human hepatocytes; settings: In vitro Assay; ref Xu 2008; cited from earlier work
[2] = tested on: PHH; settings: cited from earlier work; for PHH ATP <100uM: In vitro Assay, ref Proctor 2017
[3] = tested on: HepG2 C3A spheroid, BSEP, Glu/Gal in HepG2 cells, bioactivation; settings: cited from earlier work; for Bayesian Machine Learning: In vitro Assay, ref Williams 2019
[4] = cited from earlier work
[5] = cited from earlier work; for DILI +VE (5-8), DILI -VE (-4) / DILI severity category: ref Chen 2016
[6] = tested on: hLiMTs; settings: cited from earlier work; for hLiMTs ATP <100uM: In vitro Assay, ref Proctor 2017
[7] = tested on: PHH spheroids; settings: cited from earlier work
[8] = tested on: HepG2 cells; settings: cited from earlier work
[9] = ref Chen 2011; cited from earlier work
[10] = tested on: hLiMTs; test: Combined HCI (HCS) and cellular ATP 3D assay in hLiMTs; settings: Microtissue model structural based (HCI); combined HCS and ATP, MEC < 25 × Cmax.tot cut-off
[11] = tested on: HepaRG spheroids; test: Combined HCI (HCS) and cellular ATP 3D assay in HepaRG spheroids; settings: Microtissue model structural based (HCI); combined HCS and ATP, MEC < 25 × Cmax.tot cut-off
[12] = read-out: Human plasma Cmax; total plasma Cmax.tot, median of 9 literature references; cited from earlier work
[13] = tested on: HepG2 cells, primary human hepatocytes; settings: In vitro Assay; ref Garside 2014; cited from earlier work
[14] = tested on: HepG2 cells; settings: In vitro Assay; ref O'Brien 2006; cited from earlier work
[15] = tested on: HepG2 cells; settings: In vitro Assay; ref Persson 2013; cited from earlier work
[16] = tested on: THLE or HepG2 cells, isolated mitochondria, BSEP; settings: In vitro Assay; ref Aleo 2019; cited from earlier work
[17] = In vitro Assay, ref Vorrink 2018
[18] = In vitro Assay, ref Tolosa 2012

Compound | Structural based (HCI) [1] | PHH ATP <100uM [2] | Bayesian Machine Learning [3] | In vivo DILI ([4]; […]) | In vivo DILI ([4]; ref Proctor 2017) | In vivo DILI ([4]; ref Tolosa 2012) | In vivo DILI ([4]; ref Vorrink 2018) | In vivo DILI ([4]; ref Williams 2019) | In vivo DILI ([4]; ref Xu 2008) | DILI +VE (5-8), DILI -VE (-4) [5] | DILI severity category [5] | hLiMTs ATP <100uM [6] | hLiMTs ATP <20 x Cmax [7, 17] | Structural based (HCI) [8, 18] | DILI Score (FDA) (1-8) [9] | further results
Cc1ccccc1C(OCCN(C)C)c1ccccc1 (stereo not drawn) [orphenadrine] | -VE | -VE | -VE | -VE | -VE | +VE | -VE | -VE | -VE | -VE | vNo-DILI-Concern | -VE | -VE | +VE | – | –
O=C1NC(=O)C(c2ccccc2)(c2ccccc2)N1 [phenytoin] | +VE | – | – | +VE | – | +VE | +VE | – | +VE | +VE | vMost-DILI-Concern | – | -VE | +VE | 3 | –
CC(C)[N+](C)(CCOC(=O)C1c2ccccc2Oc2ccccc21)C(C)C [propantheline bromide] | – | – | – | – | – | – | – | – | – | – | – | – | – | – | – | PHH/100xCmax, Proctor (2017) ([2]; 2D PHH, ATP, IC50 < 100 × Cmax.tot, ref Proctor et al. 2017): -VE; PHH/100uM, Proctor (2017) ([2]; 2D PHH, ATP, IC50 threshold 100 µM, ref Proctor et al. 2017): -VE; Bayesian Machine Learning DILI prediction, Williams (2019) ([3]; Bayesian modeling, ref Williams et al. 2019): -VE; DILI prediction hLiMTs (HCS-MEC) [10]: -VE; Assigned DILI category ([4]; Chen et al. 2016 or literature alignment, ref Chen et al. 2016): 1; DILI severity category (Chen et al. [2016]) ([5]; LTKB DILIrank category, ref Chen et al. 2016): No; DILI severity category (Chen 2016) ([5]; human DILI classification, LTKB DILIrank, ref Chen et al. 2016): No; DILI prediction HepaRG spheroids (HCS-MEC) [11]: -VE; hLiMTs/100xCmax, Proctor (2017) ([6]; hLiMTs, ATP, IC50 < 100 × Cmax.tot, ref Proctor et al. 2017): -VE; hLiMTs/100uM, Proctor (2017) ([6]; hLiMTs, ATP, IC50 threshold 100 µM, ref Proctor et al. 2017): -VE; Cmax [12]: 440 nM
Cc1cn([C@H]2C=C[C@@H](CO)O2)c(=O)[nH]c1=O [stavudine] | -VE | -VE | +VE | +VE | +VE | +VE | +VE | +VE | +VE | +VE | vMost-DILI-Concern | -VE | -VE | -VE | 8 | Cluster 1-6 +VE Assay [13]: -VE; In vivo DILI ([4]; ref Aleo 2019): +VE; In vivo DILI ([4]; ref Garside 2014): +VE; In vivo DILI ([4]; ref O'Brien 2006): +VE; In vivo DILI ([4]; ref Persson 2013): +VE; Structural based (HCI) [14]: -VE; Cluser analysis [15]: -VE; Structural based (HCI) [15]: +VE; Partition Hybrid HRM Score [16]: -VE; Ro2 Hybrid HRM Score [16]: -VE
aflatoxin b1 | – | – | – | – | – | – | – | – | – | – | – | – | – | – | – | In vivo DILI ([4]; in vivo): +VE; hLiMTs ATP <20 x Cmax [7]: +VE (key: +VE: IC20 < 20 × Cmax.tot cut-off); Structural based (HCI) [8]: +VE
